Results reported in ChEMBL document CHEMBL1201862, “PubChem BioAssay data set” (2004).
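96-well plates; 48 h exposure; 5 concentrations. Endpoints by linear interpolation between flanking doses. Not reached: highest tested concentration assigned. The concentration for 50% growth inhibition is given as GI50.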 Active and inactive are the calls of the source. No stated cut-off is given here; in the data, active = GI50 up to about 1.1 µM and inactive = higher.

Columns and labels:
Assay in all cases: growth of human tumour cells (NCI), 48 h
NCI-H522 = system: NCI-H522
NCI-H23 = system: NCI-H23
SW-620 = system: SW-620
EKVX = system: EKVX
HL-60 = system: HL-60
SF-295 = system: SF-295
HOP-62 = system: HOP-62
KM12 = system: KM12
OVCAR-4 = system: OVCAR-4
SN12C = system: SN12C
CCRF-CEM = system: CCRF-CEM
HCT-116 = system: HCT-116
UACC-257 = system: UACC-257
UACC-62 = system: UACC-62
Malme-3M = system: Malme-3M
SNB-75 = system: SNB-75
OVCAR-3 = system: OVCAR-3
U-251 = system: U-251
SK-MEL-5 = system: SK-MEL-5
IGROV-1 = system: IGROV-1

## CCCCN1CN2C(=O)C(C(=O)OCC)C(=O)c3sc4nc(SC)nc1c4c32 (configuration not stated)
NCI-H522
  GI50: 18.9 µM (inactive)
NCI-H23
  GI50: 18 µM (inactive)
SW-620
  GI50: 18.4 µM (inactive)
EKVX
  GI50: 17.9 µM (inactive)
HL-60
  GI50: 46.6 µM (inactive)
SF-295
  GI50: 16.6 µM (inactive)
HOP-62
  GI50: 15.7 µM (inactive)
KM12
  GI50: 16.8 µM (inactive)
OVCAR-4
  GI50: 18.8 µM (inactive)
SN12C
  GI50: 19.7 µM (inactive)
CCRF-CEM
  GI50: 34 µM (inactive)
HCT-116
  GI50: 15.9 µM (inactive)
UACC-257
  GI50: 19 µM (inactive)
UACC-62
  GI50: 17.7 µM (inactive)
Malme-3M
  GI50: 15 µM (inactive)
SNB-75
  GI50: 17.5 µM (inactive)
OVCAR-3
  GI50: 19 µM (inactive)
U-251
  GI50: 18.2 µM (inactive)
SK-MEL-5
  GI50: 12.3 µM (inactive)
IGROV-1
  GI50: 18.9 µM (inactive)

## O=NN(CCCl)C(=O)N[C@H]1CC[C@@H](O)CC1
NCI-H522
  GI50: 20.8 µM (inactive)
NCI-H23
  GI50: 39.5 µM (inactive)
SW-620
  GI50: 22.6 µM (inactive)
EKVX
  GI50: 33.6 µM (inactive)
HL-60
  GI50: 18.2 µM (inactive)
SF-295
  GI50: 24 µM (inactive)
HOP-62
  GI50: 46.3 µM (inactive)
KM12
  GI50: 67.5 µM (inactive)
OVCAR-4
  GI50: 60.4 µM (inactive)
SN12C
  GI50: 36.6 µM (inactive)
CCRF-CEM
  GI50: 12.8 µM (inactive)
HCT-116
  GI50: 34 µM (inactive)
UACC-257
  GI50: 32.3 µM (inactive)
UACC-62
  GI50: 13 µM (inactive)
Malme-3M
  GI50: 24.8 µM (inactive)
SNB-75
  GI50: 22.6 µM (inactive)
OVCAR-3
  GI50: 33.2 µM (inactive)
U-251
  GI50: 20.6 µM (inactive)
SK-MEL-5
  GI50: 52.4 µM (inactive)
IGROV-1
  GI50: 68.4 µM (inactive)

## CCOC(=O)C1=C(C)N2CCCOC2(C)C(C(=O)OC)C1c1cccc([N+](=O)[O-])c1 (configuration not stated)
NCI-H23
  GI50: > 100 µM (inactive)
SW-620
  GI50: > 100 µM (inactive)
EKVX
  GI50: 50 µM (inactive)
HL-60
  GI50: 32.1 µM (inactive)
SF-295
  GI50: 45.2 µM (inactive)
HOP-62
  GI50: 99.1 µM (inactive)
KM12
  GI50: 49.9 µM (inactive)
CCRF-CEM
  GI50: 76.6 µM (inactive)
HCT-116
  GI50: 49.7 µM (inactive)
UACC-257
  GI50: 86.5 µM (inactive)
UACC-62
  GI50: 45.6 µM (inactive)
SNB-75
  GI50: 13.6 µM (inactive)
OVCAR-3
  GI50: 42.9 µM (inactive)
SK-MEL-5
  GI50: 39.6 µM (inactive)
IGROV-1
  GI50: > 100 µM (inactive)

## COc1cccc(N2C(Cl)C(=O)C2c2c[nH]c3ccccc23)c1 (configuration not stated)
NCI-H522
  GI50: > 100 µM (inactive)
NCI-H23
  GI50: > 100 µM (inactive)
SW-620
  GI50: > 100 µM (inactive)
EKVX
  GI50: > 100 µM (inactive)
HL-60
  GI50: > 100 µM (inactive)
SF-295
  GI50: > 100 µM (inactive)
HOP-62
  GI50: > 100 µM (inactive)
KM12
  GI50: > 100 µM (inactive)
OVCAR-4
  GI50: > 100 µM (inactive)
SN12C
  GI50: > 100 µM (inactive)
CCRF-CEM
  GI50: > 100 µM (inactive)
HCT-116
  GI50: > 100 µM (inactive)
UACC-257
  GI50: > 100 µM (inactive)
UACC-62
  GI50: > 100 µM (inactive)
Malme-3M
  GI50: 80.9 µM (inactive)
SNB-75
  GI50: > 10 µM (inactive)
OVCAR-3
  GI50: > 100 µM (inactive)
U-251
  GI50: > 100 µM (inactive)
SK-MEL-5
  GI50: > 100 µM (inactive)
IGROV-1
  GI50: > 100 µM (inactive)

## CCOC(=O)Cn1c(=O)c(C)cn(COCCO)c1=O
NCI-H522
  GI50: > 100 µM (inactive)
NCI-H23
  GI50: > 100 µM (inactive)
SW-620
  GI50: > 100 µM (inactive)
EKVX
  GI50: > 100 µM (inactive)
HL-60
  GI50: > 100 µM (inactive)
HOP-62
  GI50: > 100 µM (inactive)
KM12
  GI50: > 100 µM (inactive)
OVCAR-4
  GI50: > 100 µM (inactive)
SN12C
  GI50: > 100 µM (inactive)
CCRF-CEM
  GI50: > 10 µM (inactive)
UACC-257
  GI50: > 100 µM (inactive)
Malme-3M
  GI50: > 100 µM (inactive)
SNB-75
  GI50: > 100 µM (inactive)
OVCAR-3
  GI50: > 100 µM (inactive)
U-251
  GI50: > 100 µM (inactive)
SK-MEL-5
  GI50: > 100 µM (inactive)
IGROV-1
  GI50: > 100 µM (inactive)

## CCN1CCCC(NCc2c3ccccc3c(CNC3CCCN(CC)C3)c3ccccc23)C1 (configuration not stated)
NCI-H522
  GI50: 2.49 µM (inactive)
NCI-H23
  GI50: 15.6 µM (inactive)
SW-620
  GI50: 4.04 µM (inactive)
EKVX
  GI50: 17.3 µM (inactive)
HL-60
  GI50: 7.03 µM (inactive)
SF-295
  GI50: 4.67 µM (inactive)
HOP-62
  GI50: 19.6 µM (inactive)
KM12
  GI50: 5.45 µM (inactive)
OVCAR-4
  GI50: 5.2 µM (inactive)
SN12C
  GI50: 8.91 µM (inactive)
CCRF-CEM
  GI50: 3.34 µM (inactive)
HCT-116
  GI50: 4.5 µM (inactive)
UACC-257
  GI50: 10.9 µM (inactive)
UACC-62
  GI50: 12.9 µM (inactive)
Malme-3M
  GI50: 21.6 µM (inactive)
SNB-75
  GI50: 7.98 µM (inactive)
OVCAR-3
  GI50: 3.8 µM (inactive)
U-251
  GI50: 11.8 µM (inactive)
SK-MEL-5
  GI50: 14.1 µM (inactive)
IGROV-1
  GI50: 16.2 µM (inactive)

## CCCCCCCCCCCCCCCCSCC(COC)COP(=O)([O-])OCC[N+](C)(C)C (configuration not stated) [ILMOFOSINE]
NCI-H522
  GI50: 2.34 µM (inactive)
NCI-H23
  GI50: 13.6 µM (inactive)
SW-620
  GI50: 5.78 µM (inactive)
EKVX
  GI50: 14.4 µM (inactive)
HL-60
  GI50: 1.55 µM (inactive)
SF-295
  GI50: 2.49 µM (inactive)
HOP-62
  GI50: 3.43 µM (inactive)
KM12
  GI50: 0.977 µM (active)
OVCAR-4
  GI50: 4.06 µM (inactive)
SN12C
  GI50: 3.24 µM (inactive)
CCRF-CEM
  GI50: 2.9 µM (inactive)
HCT-116
  GI50: 6.76 µM (inactive)
UACC-257
  GI50: 14.3 µM (inactive)
UACC-62
  GI50: 4.92 µM (inactive)
Malme-3M
  GI50: 15.5 µM (inactive)
SNB-75
  GI50: 3.31 µM (inactive)
OVCAR-3
  GI50: 5.38 µM (inactive)
U-251
  GI50: 1.99 µM (inactive)
SK-MEL-5
  GI50: 12.7 µM (inactive)
IGROV-1
  GI50: 1.85 µM (inactive)
